Laboratory results as given in patent US4772618A, “Benzamides” (priority 1985, dated 1988).
Like-named read-outs stand apart in the source and are kept apart here.

Experiments:
[1] = target: T1, central and peripheral D2 (DA2)--dopamine receptors (Rattus norvegicus, UniProt P61169); assay: Apomorphine-induced stereotyped behaviour in the rat, intraperitoneal route; type: in vivo
T1 construct: Apomorphine-induced stereotyped behaviour in the rat, administering compounds via the intraperitoneal route; from tissue; host or cells: whole living rat (in vivo, intraperitoneal dosing)
Procedure: The pharmacological screening for undesirable effects upon central and peripheral D2 (DA2)--dopamine receptors was carried out using the following tests:
2. […]. (see Janssen, P. A. J., Niemegeers, C. J. E. and Jageneau, A. H. Arzneim. Forsch. 10, 1003-1005, 1960).

[2] = system: stomach emptying; assay: Stomach emptying in the rat (stomach emptying index, glass beads), oral route; type: in vivo; set-up: key: index computed from beads emptied by treated (nx) vs control (nc) rats
Procedure: Stomach emptying in the rat, administering compounds via the oral (0.1-1 mg/Kg) and intraperitoneal routes (1-10 mg/Kg), (see Jacoby, H. I. and Brodie, D. A., Gastroenterol. 52, 676-684, 1967).
A stomach emptying index was calculated as follows:
40 Glass beads (diam.perspectiveto.1 mm) administered to each rat after dosing with the test compounds at 0.1, 0.3 and 1 mg/Kg p.o. Results calculated according to the formulae: [formula] where: nc =the number of beads empited by control animals.
nx =the number of beads emptied by treated animals.
SEI=Stomach emptying index [formula]

[3] = target: T2, central and peripheral D2 (DA2)--dopamine receptors (Canis lupus familiaris, UniProt Q9GJU1); assay: Apomorphine-induced emesis in the dog, intravenous route; type: in vivo
T2 construct: Apomorphine-induced emesis in the dog, administering compounds via the intravenous route; from tissue; host or cells: whole living dog (in vivo, intravenous dosing)
Procedure: The pharmacological screening for undesirable effects upon central and peripheral D2 (DA2)--dopamine receptors was carried out using the following tests: 3. […] (see […]., High, […]., Burke, J. C. and […]. Exp. Therap., 127, 55-65, 1959).

[4] = system: dopamine receptors in the striatum and hypophysis; settings: cited from earlier work
[5] = Table 2 (with aromatic compounds), ip
[6] = Table 1, 0.1, 0.3 and 1 mg/Kg p.o.
[7] = Table 2 (with aromatic compounds), 0.1, 0.3 and 1 mg/Kg p.o.
[8] = Table 2 (with aromatic compounds)

T2 sequence (Q9GJU1 whole entry): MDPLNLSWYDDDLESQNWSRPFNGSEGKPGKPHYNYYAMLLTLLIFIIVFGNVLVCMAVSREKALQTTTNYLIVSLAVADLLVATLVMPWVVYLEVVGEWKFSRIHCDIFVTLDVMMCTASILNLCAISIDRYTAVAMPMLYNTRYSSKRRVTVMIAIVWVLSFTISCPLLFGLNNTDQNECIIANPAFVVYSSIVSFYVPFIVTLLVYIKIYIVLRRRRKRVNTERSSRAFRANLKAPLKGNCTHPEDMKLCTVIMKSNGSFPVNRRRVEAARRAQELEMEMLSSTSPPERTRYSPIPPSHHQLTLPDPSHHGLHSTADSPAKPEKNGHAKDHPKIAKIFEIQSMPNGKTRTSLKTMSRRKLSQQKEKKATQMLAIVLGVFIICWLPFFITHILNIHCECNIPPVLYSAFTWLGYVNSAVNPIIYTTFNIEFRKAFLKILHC
T1 sequence (P61169 whole entry): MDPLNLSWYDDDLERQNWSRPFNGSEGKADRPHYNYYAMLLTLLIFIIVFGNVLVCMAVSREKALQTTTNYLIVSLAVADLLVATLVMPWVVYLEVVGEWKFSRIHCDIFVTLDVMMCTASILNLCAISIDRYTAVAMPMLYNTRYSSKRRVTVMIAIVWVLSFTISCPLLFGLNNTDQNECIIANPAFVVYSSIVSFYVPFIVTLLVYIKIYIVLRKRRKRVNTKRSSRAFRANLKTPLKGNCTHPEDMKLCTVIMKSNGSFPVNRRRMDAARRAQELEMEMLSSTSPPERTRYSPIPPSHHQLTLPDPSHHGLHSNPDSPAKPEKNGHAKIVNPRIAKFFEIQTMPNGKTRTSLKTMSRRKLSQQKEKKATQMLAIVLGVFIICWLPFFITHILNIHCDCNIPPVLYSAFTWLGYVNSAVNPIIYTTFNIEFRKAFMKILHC

Antidopaminergic activity: rat stereotype behaviour induced by apomorphine, ID50 ([1]; Table 1, ip)	Antidopaminergic activity: rat stereotype behaviour induced by apomorphine, ID50 [1, 5]	SMILES	Stomach emptying index in the rat via oral route [2, 6]	Stomach emptying index in the rat via oral route [2, 7]	Antidopaminergic activity: dog emesis screen, ID50 ([3]; Table 1)	Antidopaminergic activity: dog emesis screen, ID50 [3, 8]	side effects associated with dopamine receptor blockade in some patients ([4]; in words, some patients)	side effects associated with dopamine receptor blockade in some patients ([4]; human, in vivo)
0.3 mg/kg	0.3 mg/kg	COc1cc(N)c(Cl)cc1C(=O)NC1CCN(Cc2ccccc2)CC1 [CLEBOPRIDE, N(1benzylpiperid-4-yl)-2-methoxy-4-amino-5-chlorobenzamide, reference compound]	50.0	50.0	0.0096 mg/kg	0.0096 mg/kg	extrapyramidal symptoms and hyperprolactinemia related side effects in some patients	
> 30.0 mg/kg		CCCCOc1cc(N)c(Cl)cc1C(=O)NC1CCN(CC2CCCCO2)CC1 (centres unmarked) [COMPOUND 57]	51.0		> 1 mg/kg			
> 30.0 mg/kg		CCCCOc1cc(N)c(Cl)cc1C(=O)NC1CCN(CC2OCCCO2)CC1 [COMPOUND 109]	61.3		> 1 mg/kg			
> 30.0 mg/kg		CCCCOc1cc(N)c(Cl)cc1C(=O)NC1CCN(CC2OCCCCO2)CC1 [COMPOUND 116]	56.2		> 1 mg/kg			
	3 to 10 mg/kg	COc1cc(N)c(Cl)cc1C(=O)NC1CCN(Cc2cccs2)CC1 [COMPOUND A, reference compound]		40.3		0.01 to 0.03 mg/kg		
	10 to 30 mg/kg	COc1cc(N)c([N+](=O)[O-])cc1C(=O)NC1CCN(Cc2cccs2)CC1 [COMPOUND B, reference compound]		17.7		0.03 to 0.1 mg/kg		
	10 to 30 mg/kg	COc1cc(N)c(Cl)cc1C(=O)NC1CCN(Cc2ccccn2)CC1 [COMPOUND C, reference compound]		25.0		0.03 to 0.1 mg/kg		
	3 to 10 mg/kg	COc1cc(N)c(Cl)cc1C(=O)NC1CCN(Cc2ccco2)CC1 [COMPOUND D, reference compound]		19.3		0.01 to 0.03 mg/kg		
5.4 mg/kg	5.4 mg/kg	CCN(CC)CCNC(=O)c1cc(Cl)c(N)cc1OC [METOCLOPRAMIDE, reference compound]	24.7	24.7	0.0767 mg/kg	0.0767 mg/kg		extrapyramidal symptoms and hyperprolactinemia related side effects in some patients

More lines, now with the values behind:

SMILES	Antidopaminergic activity: rat stereotype behaviour induced by apomorphine, ID50 ([1]; Table 1, ip)	Antidopaminergic activity: rat stereotype behaviour induced by apomorphine, ID50 [1, 5]	Stomach emptying index in the rat via oral route [2, 6]	Stomach emptying index in the rat via oral route [2, 7]	Antidopaminergic activity: dog emesis screen, ID50 ([3]; Table 1)	Antidopaminergic activity: dog emesis screen, ID50 [3, 8]	side effects associated with dopamine receptor blockade in some patients ([4]; in words, some patients)	side effects associated with dopamine receptor blockade in some patients ([4]; human, in vivo)
CCCOc1cc(N)c(Cl)cc1C(=O)NC1CCN(CCCC2CCCO2)CC1 (centres unmarked) [COMPOUND 39]	> 30.0 mg/kg		45.8		> 1 mg/kg			
CCCCOc1cc(N)c(Cl)cc1C(=O)NC1CCN(CC2OCCO2)CC1 [COMPOUND 66, N-[1-[2-(1,3-dioxolanyl)methyl]piperid-4-yl]-2-butoxy-4-amino-5-chlorobenzamide]	> 30.0 mg/kg		53.7		> 1 mg/kg			
CCCCOc1cc(N)c(Cl)cc1C(=O)NC1CCN(CC2OC(C)(C)C(C)(C)O2)CC1 [COMPOUND 91]	> 30.0 mg/kg		54.9		> 1 mg/kg			
CCCCOc1cc(N)c(Cl)cc1C(=O)NC1CCN(CC2OC3CCCCC3O2)CC1 (centres unmarked) [COMPOUND 95]	> 30.0 mg/kg		49.0		> 1 mg/kg			
COc1cc(N)c(Cl)cc1C(=O)NC1CCN(CC2COCO2)CC1 (centres unmarked) [COMPOUND 98]	> 30.0 mg/kg		60.1		> 1 mg/kg			
CCCOc1cc(N)c(Cl)cc1C(=O)NC1CCN(CC2OCCCO2)CC1 [COMPOUND 108]	> 30.0 mg/kg		51.0		> 1 mg/kg			
